Measured values taken from ChEMBL document CHEMBL3797140, “Acridin-3,6-dialkyldithiourea hydrochlorides as new photosensitizers for photodynamic therapy of mouse leukemia cells” (Bioorg Med Chem, 2016).

Tests used:
L1210 = assay: Phototoxicity against mouse L1210 cells assessed as cell viability preincubated for 1 hr followed by 1.05 J/cm2 UV-A irradiation measured after 48 hrs by MTT assay; format: functional, cell-based; details: L1210, light or radiation study
[1] = Dark toxicity against mouse L1210 cells assessed as cell viability after 48 hrs by MTT assay; format: cell-based
[2] = Dark toxicity against mouse NIH/3T3 cells assessed as cell viability after 48 hrs by MTT assay; format: cell-based, NIH3T3
[3] = Phototoxicity against mouse NIH/3T3 cells assessed as cell viability preincubated for 1 hr followed by 1.05 J/cm2 UV-A irradiation measured after 48 hrs by MTT assay; format: cell-based; details: NIH3T3, light or radiation study

SMILES	IC50 (L1210) [µM]	IC50 at 48 h [1] [µM]	IC50 at 48 h [2] [µM]	IC50 [3] [µM]
CCCCNC(=S)Nc1ccc2cc3ccc(NC(=S)NCCCC)cc3nc2c1	0.52	6.6	32.7	2.6
CCNC(=S)Nc1ccc2cc3ccc(NC(=S)NCC)cc3nc2c1	0.9	12	40.2	2.8
